The record followed here is US5728724A, “Benzothiophene compounds” (Eli Lilly and Company, priority 1996, dated 1998).

Where a name gives a salt, the structure may show the parent alone.

Experiment [1] has as its system uterus of ovariectomized (OVX) rats. The experiment is described as follows: Uterine weight in ovariectomized rats (post-menopausal model, agonist activity). Particulars: daily for 4 days; for change in vivo at 0.1 mg/kg / change in vivo at 1 mg/kg / change in vivo at 10 mg/kg: Rattus norvegicus, po, 96 h, read-out: Uterine Weight (% increase vs. OVX); for Uterine Weight (% increase vs. OVX): oral. In kind it is in vivo, Sprague Dawley rats. How it is done: (§1) In the examples illustrating the methods, a post-menopausal model was used in which effects of different treatments upon circulating lipids were determined.
(§2) Seventy-five day old female Sprague Dawley rats (weight range of 200 to 225g) were obtained from Charles River Laboratories (Portage, Mich.). The animals were either bilaterally ovariectomized (OVX) or exposed to a Sham surgical procedure at Charles River Laboratories, and then shipped after one week. Upon arrival, they were housed in metal hanging cages in groups of 3 or 4 per cage and had ad libitum access to food calcium content approximately 0.5%) and water for one week. Room temperature was maintained at 22.2°±1.7° C. with a minimum relative humidity of 40%. The photoperiod in the room was 12 hours light and 12 hours dark.
(§3) Dosing Regimen Tissue Collection. After a one week acclimation period (therefore, two weeks post-OVX) daily dosing with test compound was initiated. […] Animals were dosed daily for 4 days. Following the dosing regimen, animals were weighed and anesthetized with a ketamine: Xylazine (2:1, V:V) mixture and a blood sample was collected by cardiac puncture. The animals were then sacrificed by asphyxiation with CO2, the uterus was removed through a midline incision, and a wet uterine weight was determined.

In experiment [2] the test system is Uterine Eosinophil Peroxidase (EPO). Nature of the experiment: Uterine Eosinophil Peroxidase (EPO) Assay in ovariectomized rats. Format: in vivo, Sprague Dawley rats. Particulars: oral, daily for 4 days, OVX rats. Also noted: key: max velocity of A450 increase over a 15 s interval. How it is done: as §1, §2, §3
Uterine Eosinophil Peroxidase (EPO) Assay. Uteri were kept at 4° C. until time of enzymatic analysis. The uteri were then homogenized in 50 volumes of 50 mM Tris buffer (pH-8.0) containing 0.005% Triton X-100. Upon addition of 0.01% hydrogen peroxide and 10 mM O-phenylenediamine (final concentrations) in Tris buffer, increase in absorbance was monitored for one minute at 450 nm. The presence of eosonophils in the uterus is an indication of estrogenic activity of a compound. The maximal velocity of a 15 second interval was determined over the initial, linear portion of the reaction curve.

The test system of the next experiment is Serum Cholesterol. The experiment is described as follows: Serum cholesterol analysis in ovariectomized rats. Format: in vivo, Sprague Dawley rats. The conditions noted are these: daily for 4 days; for inhibition in vivo at 0.1 mg/kg / inhibition in vivo at 1 mg/kg / inhibition in vivo at 10 mg/kg: Rattus norvegicus, po, 96 h, OVX rats, read-out: Serum Cholesterol (% decrease vs. OVX); for Serum Cholesterol (% decrease vs. OVX): oral. How it is done:
as §1, §2, §3
Cholesterol Analysis. Blood samples were allowed to clot at room temperature for 2 hours, and serum was obtained following centrifugation for 10 minutes at 3000 rpm. Serum cholesterol was determined using a Boehringer Mannheim Diagnostics high performance cholesterol assay. Briefly the cholesterol was oxidized to cholest-4-en-3-one and hydrogen peroxide. The hydrogen peroxide was then reacted with phenol and 4-aminophenazone in the presence of peroxidase to produce a p-quinone imine dye, which was read spectrophotemetrically at 500 nm. Cholesterol concentration was then calculated against a standard curve. The entire assay was automated using a Biomek Automated Workstation.

Experiment [3] relates to MCF-7 breast adenocarcinoma cells. The experiment is described as follows: MCF-7 Proliferation Assay (tritiated thymidine). In kind it is cell-based. Particulars: 48 hours, tritiated thymidine incorporation; for IC50: Homo sapiens, MCF7. How it is done:
MCF-7 breast adenocarcinoma cells (ATCC HTB 22) were maintained in MEM (minimal essential medium, phenol red-free, Sigma, St. Louis, Mo.) supplimented with 10% fetal bovine serum (FBS) (V/V), L-glutamine (2 mM), sodium pyruvate (1 mM), HEPES {(N-[2-hydroxyethyl]piperazine-N'-[2-ethanesulfonic acid]10 mM}, non-essential amino acids and bovine insulin (1 ug/mL) (maintenance medium). Ten days prior to assay, MCF-7 cells were switched to maintenance medium supplemented with 10% dextran coated charcoal stripped fetal bovine serum (DCC-FBS) assay medium) in place of 10% FBS to deplete internal stores of steroids. MCF-7 cells were removed from maintenance flasks using cell dissociation medium (Ca++/Mg++ free HBSS (phenol red-free) supplemented with 10 mM HEPES and 2 mM EDTA). Cells were washed twice with assay medium and adjusted to 80,000 cells/mL. Approximately 100 μL (8,000 cells) were added to flat-bottom microculture wells (Costar 3596) and incubated at 37° C. in a 5% CO2 humidified incubator for 48 hours to allow for cell adherence and equilibration after transfer. Serial dilutions of drugs or DMSO as a diluent control were prepared in assay medium and 50 μL transferred to triplicate microcultures followed by 50 μL assay medium for a final volume of 200 μL. After an additional 48 hours at 37° C. in a 5% CO2 humidified incubator, microcultures were pulsed with tritiated thymidine (1 uCi/well) for 4 hours. Cultures were terminated by freezing at -70° C. for 24 hours followed by thawing and harvesting of microcultures using a Skatron Semiautomatic Cell Harvester. Samples were counted by liquid scintillation using a Wallac BetaPlace β counter. Results in Table 2 below show the IC50 for certain compounds of the present invention.

The IC50 is the midpoint of a concentration-inhibition curve.

Turning to `O=C(c1ccc(OCCN2CCCCC2)cc1)c1c(-c2cccc3ccccc23)sc2cc(O)ccc12` [Example 2, [2-(1-Naphthyl)-6-hydroxybenzothien-3-yl][4-[2-(1-piperdinyl)ethoxy]phenyl]methanone], in experiment [1] (0.1 mg/kg), the change in vivo at 0.1 mg/kg is 28.8%. Further, the change in vivo at 1 mg/kg in experiment [1] (1.0 mg/kg) amounted to 28.1%. In experiment [1] (10.0 mg/kg), the change in vivo at 10 mg/kg turned out to be 21.2%. Moreover, the “Uterine EPO (V. max)” value in experiment [2] (0.1 mg/kg) came to 4.5; in experiment [2] (1.0 mg/kg) it was 4.8; in experiment [2] (10.0 mg/kg) it was 3.6. Further, the inhibition in vivo at 0.1 mg/kg with Serum Cholesterol (0.1 mg/kg) was determined as 56%. The inhibition in vivo at 1 mg/kg in the experiment with Serum Cholesterol (1.0 mg/kg) was 60.6%. Further, in the experiment on Serum Cholesterol (10.0 mg/kg), the inhibition in vivo at 10 mg/kg was determined as 70.6%. Further, the IC50 in experiment [3] was found to be 0.8 nM.

On to `O=C(c1ccc(OCCN2CCCCC2)cc1)c1c(-c2ccc3ccccc3c2)sc2cc(O)ccc12` [Example 4, [2-(2-Naphthyl)-6-hydroxybenzothien-3-yl][4-[2-(1-piperdinyl)ethoxy]phenyl]methanone], for which the change in vivo at 0.1 mg/kg in experiment [1] (0.1 mg/kg) amounted to 72.7%. Further, the change in vivo at 1 mg/kg in experiment [1] (1.0 mg/kg) came out at 46.8%. Also, the change in vivo at 10 mg/kg in experiment [1] (10.0 mg/kg) stood at 59.5%. The “Uterine EPO (V. max)” value is recorded as 12.3 in experiment [2] (0.1 mg/kg), 42.9 in experiment [2] (1.0 mg/kg) and 35.7 in experiment [2] (10.0 mg/kg). Also, in the experiment on Serum Cholesterol (0.1 mg/kg), the inhibition in vivo at 0.1 mg/kg was 48.1%. Also, in the experiment with Serum Cholesterol (1.0 mg/kg), the inhibition in vivo at 1 mg/kg worked out at 54.5%. The inhibition in vivo at 10 mg/kg with Serum Cholesterol (10.0 mg/kg) turned out to be 63.6%. Further, the concentration for half-maximal inhibition (IC50) in experiment [3] turned out to be 80 nM.

Take `COc1ccc2c(C(=O)c3ccc(OCCN4CCCCC4)cc3)c(-c3cccs3)sc2c1` [Example 5, [2-(2-Thienyl)-6-methoxybenzothien-3-yl][4-[2-(1-piperdinyl)ethoxy]phenyl]methanone]: the figures for the “Uterine Weight (% increase vs. OVX)” value in experiment [1] (1.0 mg/kg) and in experiment [1] (10.0 mg/kg) were 1.4% and 28.6%, respectively. Also, the change in vivo at 0.1 mg/kg in experiment [1] (0.1 mg/kg) turned out to be 2.4%. Moreover, the entries for the “Uterine EPO (V. max)” value in experiment [2] (0.1 mg/kg), in experiment [2] (1.0 mg/kg) and in experiment [2] (10.0 mg/kg) were 3.0, 3.3 and 4.2, respectively. The “Serum Cholesterol (% decrease vs. OVX)” value in the experiment on Serum Cholesterol (0.1 mg/kg) was 6%; in the experiment on Serum Cholesterol (1.0 mg/kg), -10.2%. Moreover, in the experiment with Serum Cholesterol (10.0 mg/kg), the inhibition in vivo at 10 mg/kg stood at 26.3%. Also, in experiment [3], the “IC50, MCF-7 proliferation” value is given as “Not active at the concentration tested”.

Consider `COc1ccc2c(C(=O)c3ccc(OCCN4CCCCC4)cc3)c(-c3cccs3)sc2c1` [Example 6, [2-(2-Thienyl)-6-methoxybenzothien-3-yl][4-[2-(1-piperdinyl)ethoxy]phenyl]methanone hydrochloride], for which the “Uterine Weight (% increase vs. OVX)” value in experiment [1] (0.1 mg/kg, hydrochloride) is listed as 3.4%; in experiment [1] (1.0 mg/kg, hydrochloride) it was 4.2%; in experiment [1] (10.0 mg/kg, hydrochloride) it was 9.5%. For the same compound, the “Uterine EPO (V. max)” value is on record as 3.3 in experiment [2] (0.1 mg/kg, hydrochloride); 4.8 in experiment [2] (1.0 mg/kg, hydrochloride); 4.8 in experiment [2] (10.0 mg/kg, hydrochloride). In addition, the “Serum Cholesterol (% decrease vs. OVX)” value is reported as 23.1% in the experiment with Serum Cholesterol (0.1 mg/kg, hydrochloride); 35.8% in the experiment with Serum Cholesterol (1.0 mg/kg, hydrochloride); 29.6% in the experiment on Serum Cholesterol (10.0 mg/kg, hydrochloride).

With `O=C(c1ccc(OCCN2CCCCC2)cc1)c1c(-c2cccs2)sc2cc(O)ccc12` [Example 7, [2-(2-Thienyl)-6-hydroxybenzothien-3-yl][4-[2-(1-piperdinyl)ethoxy]phenyl]methanone], the change in vivo at 0.1 mg/kg in experiment [1] (0.1 mg/kg) is -1.7%. In addition, the change in vivo at 1 mg/kg in experiment [1] (1.0 mg/kg) is 32.4%. The change in vivo at 10 mg/kg in experiment [1] (10.0 mg/kg) turned out to be 46.9%. The “Uterine EPO (V. max)” value in experiment [2] (0.1 mg/kg) was 1.8; in experiment [2] (1.0 mg/kg), 4.5; in experiment [2] (10.0 mg/kg), 8.4. The inhibition in vivo at 0.1 mg/kg in the experiment with Serum Cholesterol (0.1 mg/kg) was -18.6%. Besides, the inhibition in vivo at 1 mg/kg in the experiment with Serum Cholesterol (1.0 mg/kg) was -0.9%. Moreover, the inhibition in vivo at 10 mg/kg in the experiment on Serum Cholesterol (10.0 mg/kg) was 51.4%. Moreover, the IC50 in experiment [3] is 20 nM.

`COc1ccc2c(C(=O)c3ccc(OCCN4CCCCC4)cc3)c(-c3ccsc3)sc2c1` [Example 8]: the change in vivo at 0.1 mg/kg in experiment [1] (0.1 mg/kg) is 6.6%. In experiment [1] (1.0 mg/kg), the change in vivo at 1 mg/kg is 10.3%. Also, the change in vivo at 10 mg/kg in experiment [1] (10.0 mg/kg) was 21.3%. Besides, the “Uterine EPO (V. max)” value is recorded as 3.0 in experiment [2] (0.1 mg/kg), 0.9 in experiment [2] (1.0 mg/kg) and 4.2 in experiment [2] (10.0 mg/kg). Further, the inhibition in vivo at 0.1 mg/kg in the experiment on Serum Cholesterol (0.1 mg/kg) was -23.4%. Also, the inhibition in vivo at 1 mg/kg in the experiment on Serum Cholesterol (1.0 mg/kg) is -3.5%. For the same compound, in the experiment with Serum Cholesterol (10.0 mg/kg), the inhibition in vivo at 10 mg/kg worked out at 35%. In experiment [3], the “IC50, MCF-7 proliferation” value is “Not active at the concentration tested”.

In the case of `O=C(c1ccc(OCCN2CCCCC2)cc1)c1c(-c2ccsc2)sc2cc(O)ccc12` [Example 9], in experiment [1] (0.1 mg/kg), the change in vivo at 0.1 mg/kg was determined as 8.8%. Besides, the change in vivo at 1 mg/kg in experiment [1] (1.0 mg/kg) turned out to be 1.2%. Moreover, the change in vivo at 10 mg/kg in experiment [1] (10.0 mg/kg) was 54.3%. Further, the “Uterine EPO (V. max)” value in experiment [2] (0.1 mg/kg) is on record as 0.9; in experiment [2] (1.0 mg/kg), 3.3; in experiment [2] (10.0 mg/kg), 2.4. The inhibition in vivo at 0.1 mg/kg in the experiment with Serum Cholesterol (0.1 mg/kg) worked out at 0.6%. The inhibition in vivo at 1 mg/kg in the experiment on Serum Cholesterol (1.0 mg/kg) amounted to 29.8%. In addition, the inhibition in vivo at 10 mg/kg with Serum Cholesterol (10.0 mg/kg) amounted to 31.9%. 10 nM corresponded to half-maximal inhibition in experiment [3] (IC50).

With `COc1ccc(Cc2sc3cc(OC)ccc3c2C(=O)c2ccc(OCCN3CCCCC3)cc2)cc1` [Example 10, [2-(4-Methoxyphenyl)methyl-6-methoxybenzothien-3-yl][4-[2-(1-piperdinyl)ethoxy]phenyl]methanone], the change in vivo at 0.1 mg/kg in experiment [1] (0.1 mg/kg) was -5.6%. For the same compound, the change in vivo at 1 mg/kg in experiment [1] (1.0 mg/kg) was 39.2%. For the same compound, the change in vivo at 10 mg/kg in experiment [1] (10.0 mg/kg) amounted to 45.2%. Besides, the “Uterine EPO (V. max)” value in experiment [2] (0.1 mg/kg) was found to be 6.6; in experiment [2] (1.0 mg/kg) it was 46.2; in experiment [2] (10.0 mg/kg) it was 65.4. Further, the inhibition in vivo at 0.1 mg/kg in the experiment with Serum Cholesterol (0.1 mg/kg) was 10.3%. The inhibition in vivo at 1 mg/kg with Serum Cholesterol (1.0 mg/kg) stood at 49%. In the experiment on Serum Cholesterol (10.0 mg/kg), the inhibition in vivo at 10 mg/kg amounted to 50%. The “IC50, MCF-7 proliferation” value in experiment [3] is on record as “Not active at the concentration tested”.
